The source made the active and inactive calls.
What was measured:
[1] = biological target: T1, Alkaline phosphatase, tissue-nonspecific isozyme (Homo sapiens, UniProt P05186); assay: human TNAP enzyme inhibitors, SAR follow-up, biochemical, luminescent, dose response (AID 1056)
T1 sequence (P05186 whole entry): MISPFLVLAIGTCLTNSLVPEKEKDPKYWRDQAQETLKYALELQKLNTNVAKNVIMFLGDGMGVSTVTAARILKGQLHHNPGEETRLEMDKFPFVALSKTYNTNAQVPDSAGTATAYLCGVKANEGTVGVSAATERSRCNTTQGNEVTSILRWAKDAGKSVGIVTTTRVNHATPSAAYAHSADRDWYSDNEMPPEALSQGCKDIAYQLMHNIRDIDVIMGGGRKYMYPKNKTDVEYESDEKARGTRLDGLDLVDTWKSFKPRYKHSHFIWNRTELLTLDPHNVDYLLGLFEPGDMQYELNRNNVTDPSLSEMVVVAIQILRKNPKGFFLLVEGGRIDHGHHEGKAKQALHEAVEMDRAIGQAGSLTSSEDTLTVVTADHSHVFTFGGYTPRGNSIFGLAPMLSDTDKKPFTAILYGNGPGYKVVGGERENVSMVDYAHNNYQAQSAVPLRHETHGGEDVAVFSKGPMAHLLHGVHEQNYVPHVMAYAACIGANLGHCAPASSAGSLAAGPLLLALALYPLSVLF

[2] = biological target: Alkaline phosphatase, placental type (Homo sapiens, UniProt P05187); assay: PLAP enzyme inhibitors, confirmation, biochemical, luminescence (AID 1512); format: functional
Sequence of Alkaline phosphatase, placental type (P05187 whole entry): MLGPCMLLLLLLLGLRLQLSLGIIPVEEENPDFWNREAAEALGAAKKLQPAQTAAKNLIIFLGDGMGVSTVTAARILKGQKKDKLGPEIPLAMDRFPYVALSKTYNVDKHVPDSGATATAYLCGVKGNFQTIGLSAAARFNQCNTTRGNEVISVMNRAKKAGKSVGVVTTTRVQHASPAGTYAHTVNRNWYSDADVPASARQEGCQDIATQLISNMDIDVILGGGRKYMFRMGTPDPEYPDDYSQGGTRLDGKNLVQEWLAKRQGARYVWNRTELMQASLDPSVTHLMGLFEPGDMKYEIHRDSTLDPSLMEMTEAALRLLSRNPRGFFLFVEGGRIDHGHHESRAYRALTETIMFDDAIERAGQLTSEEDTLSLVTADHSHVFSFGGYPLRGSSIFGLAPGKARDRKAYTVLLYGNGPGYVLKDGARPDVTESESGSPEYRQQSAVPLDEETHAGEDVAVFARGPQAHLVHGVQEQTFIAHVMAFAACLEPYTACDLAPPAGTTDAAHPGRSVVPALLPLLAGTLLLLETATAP

Troponin, cardiac muscle = Troponin, cardiac muscle (Homo sapiens, UniProt P19429+P45379+P63316); assay: Fluorescence-based biochemical high throughput dose response assay for activators of the calcium sensitivity of cardiac Regulated Thin Filaments (RTF). [Related pubchem assays (depositor defined):AID493008, AID493018, AID504382, AID504383]; format: protein-complex assay
Protein skinhead-1 = biological target: T2, Protein skinhead-1 (Caenorhabditis elegans, UniProt P34707); format: functional
T2 sequence (P34707 whole entry): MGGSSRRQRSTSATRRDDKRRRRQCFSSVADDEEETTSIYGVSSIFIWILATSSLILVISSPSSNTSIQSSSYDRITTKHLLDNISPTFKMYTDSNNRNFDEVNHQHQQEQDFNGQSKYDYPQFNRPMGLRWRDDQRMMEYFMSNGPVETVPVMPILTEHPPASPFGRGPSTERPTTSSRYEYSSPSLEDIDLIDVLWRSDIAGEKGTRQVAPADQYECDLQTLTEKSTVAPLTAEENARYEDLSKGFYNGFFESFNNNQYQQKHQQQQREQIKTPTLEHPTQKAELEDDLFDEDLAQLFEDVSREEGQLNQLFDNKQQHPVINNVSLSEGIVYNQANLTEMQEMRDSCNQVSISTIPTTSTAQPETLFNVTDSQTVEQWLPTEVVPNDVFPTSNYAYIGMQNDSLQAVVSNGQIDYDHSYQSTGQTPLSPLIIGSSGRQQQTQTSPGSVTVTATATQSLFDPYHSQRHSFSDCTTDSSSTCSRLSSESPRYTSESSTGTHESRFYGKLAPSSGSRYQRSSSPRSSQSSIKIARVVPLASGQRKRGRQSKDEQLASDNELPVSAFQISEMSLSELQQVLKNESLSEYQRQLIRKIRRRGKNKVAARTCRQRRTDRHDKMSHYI

[3] = biological target: Glyceraldehyde-3-phosphate dehydrogenase (Homo sapiens, UniProt P04406)
Sequence of Glyceraldehyde-3-phosphate dehydrogenase (P04406 whole entry): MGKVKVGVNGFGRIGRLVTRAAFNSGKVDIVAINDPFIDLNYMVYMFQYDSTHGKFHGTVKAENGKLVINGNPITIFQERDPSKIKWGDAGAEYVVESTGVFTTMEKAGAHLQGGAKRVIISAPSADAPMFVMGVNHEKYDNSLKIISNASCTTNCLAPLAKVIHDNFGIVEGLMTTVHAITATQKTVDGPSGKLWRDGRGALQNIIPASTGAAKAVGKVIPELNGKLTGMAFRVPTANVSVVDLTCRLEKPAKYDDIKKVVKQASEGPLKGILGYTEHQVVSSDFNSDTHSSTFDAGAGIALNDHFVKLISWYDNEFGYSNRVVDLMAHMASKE

[4] = biological target: T3, Heat shock factor protein 1 (Mus musculus, UniProt P38532); assay: HSF1 potentiators in luciferase reporter cells, confirmation, cell-based, NIH3T3, luminescence, dose retest (AID 435004); format: functional;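 further: stress induced by proteasome inhibitor MG132 added 30 min after compound; luciferase reporter driven by HSF1 response element in NIH3T3 cells; actives raise luminescence as potentiators of the MG132 stress response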
T3 sequence (P38532 whole entry): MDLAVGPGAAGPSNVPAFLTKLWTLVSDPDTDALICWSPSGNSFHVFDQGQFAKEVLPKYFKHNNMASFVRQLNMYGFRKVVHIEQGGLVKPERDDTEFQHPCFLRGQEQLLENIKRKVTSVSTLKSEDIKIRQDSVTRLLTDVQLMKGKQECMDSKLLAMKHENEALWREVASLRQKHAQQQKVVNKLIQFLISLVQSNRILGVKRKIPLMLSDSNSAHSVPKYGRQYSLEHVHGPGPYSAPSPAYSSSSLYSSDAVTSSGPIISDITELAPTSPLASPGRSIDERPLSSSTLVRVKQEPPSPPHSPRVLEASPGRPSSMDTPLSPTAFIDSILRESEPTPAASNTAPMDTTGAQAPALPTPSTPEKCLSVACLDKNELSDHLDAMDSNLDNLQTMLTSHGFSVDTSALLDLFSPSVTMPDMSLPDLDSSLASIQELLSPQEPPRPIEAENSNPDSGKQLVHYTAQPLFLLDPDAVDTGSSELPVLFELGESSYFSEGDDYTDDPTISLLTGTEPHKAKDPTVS

CAAX prenyl protease 2 = biological target: T4, CAAX prenyl protease 2 (Saccharomyces cerevisiae S288c, UniProt Q03530); format: biochemical
T4 sequence (Q03530 whole entry): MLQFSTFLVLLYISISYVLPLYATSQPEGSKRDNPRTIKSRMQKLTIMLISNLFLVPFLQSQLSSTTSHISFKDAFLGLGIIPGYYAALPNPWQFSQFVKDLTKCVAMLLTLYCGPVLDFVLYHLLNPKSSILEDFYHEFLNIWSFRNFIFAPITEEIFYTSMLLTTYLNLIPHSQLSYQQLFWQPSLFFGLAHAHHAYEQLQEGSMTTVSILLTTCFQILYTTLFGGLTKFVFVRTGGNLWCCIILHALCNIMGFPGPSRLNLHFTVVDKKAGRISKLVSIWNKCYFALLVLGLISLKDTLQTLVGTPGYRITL

Trypsin = Trypsin (Sus scrofa, UniProt P00761); assay: porcine trypsin inhibitors, dose response, selectivity assay for Rce1 protease inhibitor project, biochemical, quenched peptide fluorescence, cherry-pick (AID 488789)
Sequence of Trypsin (P00761 whole entry): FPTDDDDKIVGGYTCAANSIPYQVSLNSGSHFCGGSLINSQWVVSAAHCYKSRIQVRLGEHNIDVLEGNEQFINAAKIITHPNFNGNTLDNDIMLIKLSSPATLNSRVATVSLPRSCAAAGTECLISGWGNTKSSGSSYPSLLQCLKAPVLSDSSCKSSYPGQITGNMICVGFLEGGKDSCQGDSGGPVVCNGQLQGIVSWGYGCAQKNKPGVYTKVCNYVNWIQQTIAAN

Beta-galactosidase = Beta-galactosidase (Escherichia coli, UniProt Q8VNN2); assay: Dose response counterscreen for EBI2 assay utilizing the enzyme, b-galactosidase.; format: functional
Sequence of Beta-galactosidase (Q8VNN2 whole entry): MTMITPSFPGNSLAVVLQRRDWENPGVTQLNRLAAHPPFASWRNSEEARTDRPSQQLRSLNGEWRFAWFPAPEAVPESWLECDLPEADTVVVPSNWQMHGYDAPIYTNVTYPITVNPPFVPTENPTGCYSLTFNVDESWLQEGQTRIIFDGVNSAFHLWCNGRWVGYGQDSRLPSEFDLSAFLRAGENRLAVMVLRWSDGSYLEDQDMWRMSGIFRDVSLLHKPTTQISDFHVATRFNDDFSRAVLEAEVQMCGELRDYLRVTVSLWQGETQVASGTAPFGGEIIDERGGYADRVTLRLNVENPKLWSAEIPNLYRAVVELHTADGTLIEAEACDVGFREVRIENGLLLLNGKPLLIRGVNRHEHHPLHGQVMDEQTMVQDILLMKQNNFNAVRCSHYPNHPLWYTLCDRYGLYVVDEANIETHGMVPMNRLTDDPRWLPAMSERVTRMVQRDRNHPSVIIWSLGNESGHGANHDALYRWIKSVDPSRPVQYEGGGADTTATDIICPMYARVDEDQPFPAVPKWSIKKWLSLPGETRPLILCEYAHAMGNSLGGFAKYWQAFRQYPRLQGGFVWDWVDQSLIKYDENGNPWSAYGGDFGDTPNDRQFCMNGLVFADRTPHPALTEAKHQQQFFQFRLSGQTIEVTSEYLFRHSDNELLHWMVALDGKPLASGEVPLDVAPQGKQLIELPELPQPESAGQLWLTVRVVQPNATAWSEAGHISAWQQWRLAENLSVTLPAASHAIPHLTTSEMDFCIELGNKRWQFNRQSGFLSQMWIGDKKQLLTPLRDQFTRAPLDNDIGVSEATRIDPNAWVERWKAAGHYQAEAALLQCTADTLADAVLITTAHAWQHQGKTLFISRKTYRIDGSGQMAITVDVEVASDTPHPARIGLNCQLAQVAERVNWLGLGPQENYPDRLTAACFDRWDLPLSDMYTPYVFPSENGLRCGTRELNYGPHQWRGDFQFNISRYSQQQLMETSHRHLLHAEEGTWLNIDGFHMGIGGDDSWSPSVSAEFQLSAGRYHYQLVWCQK

cells [5] = format: functional
[6] = HepG2 cell cytotoxicity, dose response, cytotoxicity control for non-replicating M. tuberculosis project (AID 489018); format: functional; details: Mycobacterium tuberculosis
[7] = THP-1 cell cytotoxicity, dose response, cytotoxicity control for non-replicating M. tuberculosis project (AID 489025); format: functional
[8] = Vero E6 cell cytotoxicity, dose response, cytotoxicity control for non-replicating M. tuberculosis project, secondary assay (AID 492998); format: functional, VeroE6; details: Vero C1008
[9] = C. albicans growth with fluconazole, confirmation, fluorescence, retest (AID 2467); format: functional, cell-based
[10] = NIH-3T3 fibroblast cytotoxicity, dose response, cytotoxicity control, cell-based, fluorescence, Alamar Blue, secondary assay (AID 2327); format: functional;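 further: NIH-3T3 mouse fibroblasts cultured with fluconazole at 8 µg/mL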
[11] = A cytotoxicity screen of small molecule inhibitors of the PhoP region in Salmonella typhi identified in the primary screen. [Related pubchem assays: 1850, 1864, 1985 ]; format: functional
[12] = biological target: T5, Microphthalmia-associated transcription factor (Homo sapiens, UniProt O75030); assay: TRPM1 promoter luciferase signal decrease, dose response, MITF inhibitor project, cell-based, SK-MEL-5, cherry-picked, set 3 (AID 493073); format: functional
T5 sequence (O75030 whole entry): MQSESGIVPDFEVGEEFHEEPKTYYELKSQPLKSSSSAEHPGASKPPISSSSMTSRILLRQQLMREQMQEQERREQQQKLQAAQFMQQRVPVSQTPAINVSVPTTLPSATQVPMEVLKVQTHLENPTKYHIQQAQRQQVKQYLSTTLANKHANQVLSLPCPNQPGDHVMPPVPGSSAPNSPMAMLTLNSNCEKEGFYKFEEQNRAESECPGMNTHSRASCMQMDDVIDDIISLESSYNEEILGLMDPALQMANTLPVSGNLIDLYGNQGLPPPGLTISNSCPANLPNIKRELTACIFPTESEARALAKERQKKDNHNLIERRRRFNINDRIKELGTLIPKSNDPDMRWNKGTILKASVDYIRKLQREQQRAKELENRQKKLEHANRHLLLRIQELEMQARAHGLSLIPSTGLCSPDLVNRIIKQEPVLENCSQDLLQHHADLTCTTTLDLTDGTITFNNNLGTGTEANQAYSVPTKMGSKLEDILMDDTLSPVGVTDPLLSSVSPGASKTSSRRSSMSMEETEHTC

cells [13] = format: functional, cell-based; details: HEK-CNG
Galanin receptor type 3 = biological target: T6, Galanin receptor type 3 (Homo sapiens, UniProt O60755); assay: Fluorescence-based cell-based primary high throughput dose response assay to identify antagonists of the Galanin Receptor 3 (GalR3).; format: functional
T6 sequence (O60755 whole entry): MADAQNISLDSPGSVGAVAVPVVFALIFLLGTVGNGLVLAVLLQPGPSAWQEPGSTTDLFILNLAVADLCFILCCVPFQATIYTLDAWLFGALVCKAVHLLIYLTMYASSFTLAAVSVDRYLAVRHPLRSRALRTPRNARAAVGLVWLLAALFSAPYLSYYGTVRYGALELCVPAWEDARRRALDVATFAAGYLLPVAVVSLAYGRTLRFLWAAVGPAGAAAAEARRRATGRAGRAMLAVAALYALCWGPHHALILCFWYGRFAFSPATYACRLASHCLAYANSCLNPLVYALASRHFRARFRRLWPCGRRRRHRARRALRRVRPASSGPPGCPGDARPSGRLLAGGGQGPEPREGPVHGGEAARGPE

[14] = biological target: T7, Corticotropin-releasing factor receptor 2/Corticotropin-releasing factor-binding protein (Homo sapiens, UniProt P24387+Q13324); assay: activators of CRF receptor 2 with binding protein – uHTS hits, confirmation (AID 602473); format: functional; details: read-out: EC50_Mean
T7 sequence (Q13324 whole entry): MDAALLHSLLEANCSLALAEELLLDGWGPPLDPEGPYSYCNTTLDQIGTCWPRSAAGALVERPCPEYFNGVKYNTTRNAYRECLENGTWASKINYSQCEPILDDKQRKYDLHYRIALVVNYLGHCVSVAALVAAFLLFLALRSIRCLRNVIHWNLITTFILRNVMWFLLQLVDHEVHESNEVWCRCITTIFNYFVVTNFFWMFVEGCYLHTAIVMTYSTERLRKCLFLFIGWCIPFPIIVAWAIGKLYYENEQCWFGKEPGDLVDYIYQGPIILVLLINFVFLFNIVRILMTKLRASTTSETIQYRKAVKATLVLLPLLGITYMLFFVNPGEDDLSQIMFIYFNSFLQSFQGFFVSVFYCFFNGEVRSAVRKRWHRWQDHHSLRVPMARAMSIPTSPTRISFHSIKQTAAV
T7 sequence (P24387 whole entry): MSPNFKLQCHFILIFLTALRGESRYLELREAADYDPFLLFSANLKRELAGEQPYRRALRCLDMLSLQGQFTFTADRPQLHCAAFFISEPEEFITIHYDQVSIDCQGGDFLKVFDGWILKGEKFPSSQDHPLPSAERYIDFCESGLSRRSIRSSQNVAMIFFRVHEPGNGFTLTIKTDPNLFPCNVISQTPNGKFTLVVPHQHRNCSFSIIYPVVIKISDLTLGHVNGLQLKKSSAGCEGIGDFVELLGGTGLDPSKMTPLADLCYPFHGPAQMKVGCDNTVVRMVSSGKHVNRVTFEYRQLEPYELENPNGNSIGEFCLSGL

Streptococcus = assay: Group A Streptococcus viability loss, dose response, counter-screen for streptokinase expression inhibitor project, luminescence, BacTiterGlo (AID 1915); format: functional, organism-based;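 further: potency for reduction of bacterial viability or growth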
[15] = tested on: Streptococcus sp. 'group A'; assay: growth inhibition of control SK(-) GAS strain, dose response, counter-screen for streptokinase expression inhibitor project, luminescence, kanamycin, BacTiterGlo, confirmation (AID 1900); format: functional, organism-based

SMILES: O=C(CN1CCCCC1)c1ccc(O)c(O)c1
- IC50 [1]: 43.2 µM (active)
- IC50 [2]: 67.5 µM (active)

SMILES: CCN(CC)c1ccc(/C=c2\sc3nc4ccccc4n3c2=O)c(O)c1
- EC50 (Troponin, cardiac muscle): 2.78 µM (active)
- IC50 (Protein skinhead-1): > 100 µM (inactive)

SMILES: COc1ccc(OC)c(NS(=O)(=O)c2cccc3cccnc23)c1
- IC50 [1]: > 100 µM (inactive)
- IC50 [3]: > 100 µM (not active)

SMILES: CCOC(=O)c1sc2nc(C)nc(SCC(=O)NC3CCS(=O)(=O)C3)c2c1C (stereo not given)
- EC50 (Troponin, cardiac muscle): > 71.5 µM (inactive)
- EC50 [4]: > 260 µM (inactive)

SMILES: COc1ccc(C(C(=O)NC2CCCCC2)N(C(=O)c2snc(C(N)=O)c2N)c2ccc(OC)cc2OC)cc1 (stereo not given)
- AC50 (CAAX prenyl protease 2): 22.1 µM (active)
- AC50 (Trypsin): 21.6 µM (active)
- IC50 (Beta-galactosidase): > 80 µM (inactive)

SMILES: COc1cc(OC)cc(C(=O)Oc2c(CN3CCOCC3)cc(Cl)c3cccnc23)c1
- IC50 (cells [5]): 15.4 µM (active)
- CC50 [6]: 17 µM (active)
- CC50 [7]: 7.27 µM (active)
- CC50 [8]: 3.74 µM (active)
- EC50 [9]: 2.94 µM (active)
- EC50 [10]: > 150 µM (inconclusive)

SMILES: O=C(Cn1cc(/C=C\[N+](=O)[O-])c2ccccc21)Nc1ccccc1
- EC50 [11]: > 50 µM (active)
- AC50 [12]: 7.45 µM (active)

SMILES: O=C1CCN(Cc2ccccc2)CCN1[C@H](CSc1ccccc1)Cc1ccccc1
- AC50 (CAAX prenyl protease 2): 13.9 µM (active)

SMILES: Cc1cc(NC(=O)COC(=O)C(Cc2ccccc2)NC(=O)c2ccco2)no1 (stereo not given)
- EC50 (Troponin, cardiac muscle): > 71.5 µM (inactive)
- EC50 (cells [13]): > 29.9 µM (inactive)
- IC50 (Galanin receptor type 3): > 29.9 µM (inactive)
- EC50 [14]: 4.49 µM (active)

SMILES: CCOC(=O)Cc1c(C)nc2c(-c3cccc(Br)c3)cnn2c1O
- IC50 (cells [5]): 3.08 µM (active)
- CC50 [6]: 16.4 µM (active)
- CC50 [7]: 11.9 µM (active)
- CC50 [8]: 8.15 µM (active)
- EC50 (Streptococcus): 6.07 µM (active)
- EC50 [15]: 3.46 µM (active)
